From patent US20060194262A1, “P27 ubiquitination assay and methods of use” (priority 2004, published 2006)
Where two headings read alike, the source gives them in different places. Each block holds one compound with its values, some of them ahead of it.

Columns and labels:
[1] = test system: T1, p27 ubiquitination (E1, E2, E3 SCF^Skp2, Cks1); assay: p27 ubiquitination assay, plate capture format (DMSO tolerance); format: biochemical, Human
T1 construct: His; Strep tag (cleaved yes); GST; made in house; host or cells: Sf9 (His-E1; p27/Cdk2/cyclin E); E. coli (His-UbcH3, Cks1); baculovirus-infected insect cells (SCF-Skp2)
From the text: This assay measures the ubiquitination of cell cycle inhibitor p27 in a high-throughput-capable in vitro reconstituted system that mimics the ubiquitination of p27 in vivo. Ubiquitinated p27 is captured using an anti-p27 antibody-coated plate and detected by Europium (Eu)-labeled streptavidin that binds biotinylated ubiquitin. The assay as described below incorporates the addition of a test compound to the ubiquitination reaction.
Assay mix A (see below) contained: 3× concentration ubiquitin buffer (120 mM Tris·HCl pH 7.5, 15 mM MgCl2), 3 mM dithiothreitol, 15 ng/μL E1, 450 ng/μLE2, 15 ng/μL E3, and 12 ng/μL pre-phosphorylated p27.
Starting solution (see below) contained 0.75 mg/mL biotinylated ubiquitin and 0.75 ng/μL Cks1 in assay dilution buffer (30 mM Tris·HCl pH7.5, 1 mM DTT, 19.5% glycerol). Starting solution for negative control contains 0.75 mg/mL biotinylated ubiquitin in assay dilution buffer (30 mM Tris·HCl pH7.5, 1 mM DTT, 19.5% glycerol).
The capture plates were coated as follows. […]
The ubiquitination reaction was run as follows: 5 μL of a test compound in 6% dimethylsulfoxide (DMSO) was added to each well of a V-bottom plate. […] 25 μL enhancement solution was added per well, and the plates were read to determine the amount of time-resolved fluorescence emission at 615 nm for Europium chelate. […]

[2] = test system: p27 ubiquitination (E1, E2, E3 SCF^Skp2, Cks1); settings: reaction includes 5 mM MgCl2
From the text: A homogenous, time-resolved fluorescence resonance energy transfer (HTR-FRET) assay was developed for high throughput screening of compounds that block p27 ubiquitination in vitro. In this assay, p27 is modified with a mixture of ubiquitin (Ub) and biotinylated ubiquitin (Bio-Ub) in the presence of E1, E2, E3 and Cks1 (FIG. 11). A rabbit anti-phospho-p27 antibody and Lance Eu labeled Protein G (Eu-PRG) were used as a donor and Cy5-labeled streptavidin (Cy5-SA or Dylite-SA) is used as an acceptor. Ubiquitinated p27 is detected by FRET signal generated between Eu and Cy5.
In this format, Bio-Ub is used as a tracer to label ubiquitinated p27. Lance Eu-labeled Protein G (Eu-PRG) coupled to anti-phospho-p27 is used as the FRET donor, and SA-Cy5 is used as the FRET acceptor. The FRET signal is measured as the ratio of fluorescence emission of Cy5 at 665 nm over that of Eu at 620 nm after excitation of Eu at 340 nm.
Next, stopping conditions for the p27 ubiquitination were determined.
Assay Procedures: • 1) Prepare Starting solutions and incubate at room temperature for 20˜30 min Start+Cks1: 12 μM Ub, 3 μM Bio-Ub, and 1.875 ng/μl (187.5 nM) Cks1 in assay dilution buffer. Start−Cks1: 12 μM Ub and 3 μM Bio-Ub in assay dilution buffer. • 2) Prepare Assay mix A as indicated in Table 3 • 3) Set up reaction: In an assay plate, add 5 μl/well of Assay mix A, compound in 6% DMSO and 0.03% Brij35 (30 μg/ml; final concentration at 10 μg/ml), and Starting solutions. The total assay volume is 15 μl. Incubate at room temperature (˜23° C.-25° C.) for 1 hour. • 4) Stop the reaction with the addition of 15 μl/well of Stopping solution (40 mM EDTA, 0.1% Tween 20, 250 nM Cy5, 2 nM Eu-PRG, and 8 nM anti-phospho-p27 in PBS)

[3] = biological target: T2, E1 (Homo sapiens, UniProt P22314); assay: apparent Km of ubiquitin for E1; format: biochemical; settings: read-out: apparent Km of Ub for E1
T2 sequence (P22314 1-1058): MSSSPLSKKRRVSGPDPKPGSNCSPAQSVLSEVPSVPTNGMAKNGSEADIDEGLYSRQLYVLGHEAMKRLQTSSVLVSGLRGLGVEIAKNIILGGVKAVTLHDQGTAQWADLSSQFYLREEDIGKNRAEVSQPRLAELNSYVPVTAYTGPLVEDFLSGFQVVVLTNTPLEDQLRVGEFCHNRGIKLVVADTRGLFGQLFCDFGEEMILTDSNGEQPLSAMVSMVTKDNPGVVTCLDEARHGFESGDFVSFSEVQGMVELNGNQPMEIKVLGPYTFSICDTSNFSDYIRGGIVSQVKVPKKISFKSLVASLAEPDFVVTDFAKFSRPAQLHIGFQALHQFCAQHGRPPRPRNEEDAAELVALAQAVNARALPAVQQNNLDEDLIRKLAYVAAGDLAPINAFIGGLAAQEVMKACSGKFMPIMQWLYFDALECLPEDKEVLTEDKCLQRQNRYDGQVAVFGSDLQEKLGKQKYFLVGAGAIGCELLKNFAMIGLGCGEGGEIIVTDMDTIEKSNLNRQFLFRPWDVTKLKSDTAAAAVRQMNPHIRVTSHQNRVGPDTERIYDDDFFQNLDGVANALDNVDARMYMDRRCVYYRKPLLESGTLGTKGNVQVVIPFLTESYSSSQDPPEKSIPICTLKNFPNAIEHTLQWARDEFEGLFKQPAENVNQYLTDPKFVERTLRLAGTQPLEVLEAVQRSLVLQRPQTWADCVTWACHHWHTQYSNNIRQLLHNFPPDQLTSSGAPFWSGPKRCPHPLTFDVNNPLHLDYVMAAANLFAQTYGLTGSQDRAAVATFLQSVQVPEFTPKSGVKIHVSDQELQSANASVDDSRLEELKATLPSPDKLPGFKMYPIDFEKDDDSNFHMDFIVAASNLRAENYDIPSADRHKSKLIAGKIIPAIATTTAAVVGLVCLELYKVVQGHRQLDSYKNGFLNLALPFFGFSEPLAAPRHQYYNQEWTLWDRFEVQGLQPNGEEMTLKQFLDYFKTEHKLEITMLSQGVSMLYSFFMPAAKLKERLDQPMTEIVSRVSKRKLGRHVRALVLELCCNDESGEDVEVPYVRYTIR
Description: In an HTR-FRET assay, the background FRET increases as the concentrations of Eu and Cy5 increase. In general, to achieve a low background signal, Eu concentrations should be in the low nM range while Cy5 concentrations can be up to 100-200 nM. To determine the optimal concentration of Bio-Ub used in the p27 Ub assay, 80 nM of p27 was ubiquitinated with 0-4 μM of Bio-Ub and diluted 1:4 with a detection mixture containing a final concentration of 5 nM Eu-PRG, 10 nM anti-p27, and 25-125 nM SA-Cy5. 1 uM of Bio-Ub with 125 nM of Cy5-SA gave the best signal-to-background (S/B) ratio (FIG. 12). […] Since the apparent Km of Ub for E1 is about 2 μM, 4 μM of unlabeled ubiquitin was used in the reaction (2×apparent Km). Ubiquitination of p27 in the presence of 4 μM Ub and 1 μM Bio-Ub was very similar to that of p27 in the presence of saturating concentrations of Bio-Ub (28 μM) (FIG. 13).

Compound: C[S+](C)[O-] [DMSO, dimethylsulfoxide]
- p27 ubiquitination activity remained ([1]; 2% DMSO, titration between 0 and 10% DMSO): approximately 60%
- p27 ubiquitination ([1]; above 15% (v/v) of DMSO, initial titration): nearly completely lost

- effect on p27 ubiquitination ([2]; 5 mM EDTA alone): no effect
- p27 ubiquitination ([2]; 10 mM EDTA): only partially inhibited
- Ubiquitination of p27 ([2]; 20 mM EDTA, data not shown): completely inhibited
Compound: O=C(O)CN(CCN(CC(=O)O)CC(=O)O)CC(=O)O [EDTA]

Compound: ubiquitin
- Km [3]: ~2 µM
